Experimental findings from ChEMBL document CHEMBL1133432, “Probes for imidazoline binding sites: synthesis and evaluation of a selective, irreversible I2 ligand” (Bioorg Med Chem Lett, 2000) are described below.

Experiment [1] addresses T1, Adrenergic receptor alpha-2 (Rattus norvegicus, UniProt P22086+P19328+P22909).
T1 sequence (P22086 whole entry): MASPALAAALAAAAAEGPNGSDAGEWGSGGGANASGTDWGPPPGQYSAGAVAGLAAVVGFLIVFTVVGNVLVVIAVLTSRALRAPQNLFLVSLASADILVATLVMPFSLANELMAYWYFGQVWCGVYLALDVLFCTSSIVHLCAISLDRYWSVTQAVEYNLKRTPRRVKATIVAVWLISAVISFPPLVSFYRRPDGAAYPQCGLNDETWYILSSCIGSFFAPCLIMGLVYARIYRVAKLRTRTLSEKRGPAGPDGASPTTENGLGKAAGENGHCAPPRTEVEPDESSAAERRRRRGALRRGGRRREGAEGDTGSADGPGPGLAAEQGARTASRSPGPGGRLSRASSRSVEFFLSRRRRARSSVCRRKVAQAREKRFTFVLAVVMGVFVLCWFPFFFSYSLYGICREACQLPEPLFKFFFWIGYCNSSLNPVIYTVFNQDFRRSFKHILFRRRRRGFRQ
T1 sequence (P19328 whole entry): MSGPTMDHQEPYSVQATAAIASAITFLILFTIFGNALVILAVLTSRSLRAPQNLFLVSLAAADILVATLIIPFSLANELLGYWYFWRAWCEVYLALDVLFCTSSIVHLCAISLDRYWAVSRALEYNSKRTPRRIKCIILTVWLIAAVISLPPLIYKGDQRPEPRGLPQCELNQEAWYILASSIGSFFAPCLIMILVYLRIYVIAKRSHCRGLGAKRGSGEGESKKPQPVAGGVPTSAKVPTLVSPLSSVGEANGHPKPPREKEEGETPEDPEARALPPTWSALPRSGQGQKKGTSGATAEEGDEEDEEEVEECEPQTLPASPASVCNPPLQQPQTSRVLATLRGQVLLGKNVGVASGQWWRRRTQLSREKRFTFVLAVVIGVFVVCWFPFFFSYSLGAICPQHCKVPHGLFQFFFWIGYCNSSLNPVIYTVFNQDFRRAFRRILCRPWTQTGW
T1 sequence (P22909 whole entry): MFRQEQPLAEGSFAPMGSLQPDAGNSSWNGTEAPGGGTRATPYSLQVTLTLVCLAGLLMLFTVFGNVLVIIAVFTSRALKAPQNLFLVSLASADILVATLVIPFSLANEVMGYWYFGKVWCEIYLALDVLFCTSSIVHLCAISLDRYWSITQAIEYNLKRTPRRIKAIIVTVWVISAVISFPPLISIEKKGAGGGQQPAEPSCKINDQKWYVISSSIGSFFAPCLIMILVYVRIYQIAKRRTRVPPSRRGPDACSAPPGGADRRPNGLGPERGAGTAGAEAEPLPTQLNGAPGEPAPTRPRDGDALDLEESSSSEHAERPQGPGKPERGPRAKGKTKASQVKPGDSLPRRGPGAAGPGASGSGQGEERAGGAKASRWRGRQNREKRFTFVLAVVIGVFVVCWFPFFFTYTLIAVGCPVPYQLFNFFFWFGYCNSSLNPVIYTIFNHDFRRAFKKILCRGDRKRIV
Nature of the experiment: Inhibition of 1 nM [3H]RX-821002 binding to rat whole brain membrane Alpha-2 adrenergic receptors.

Experiment [2] is described as follows: Inhibition of 1 nM [3H]2-BFI binding to rat whole brain membrane imidazoline receptor I-2.

Regarding `N#CSc1ccc2oc(C3=NCCN3)cc2c1`, the figures for the inhibition constant (Ki) in experiment [1] and in experiment [2] were 16300 nM and 2.3 nM, respectively.

Turning to `c1ccc2oc(C3=NCCN3)cc2c1`, the Ki in experiment [1] was 1900 nM; in experiment [2], 1.7 nM.
